The values that follow come from ChEMBL document CHEMBL1201862, “PubChem BioAssay data set” (2004).

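Step 1: Grow cells in 96-well plates. Step 2: Expose to compound for 48 hours at 5 concentrations. Step 3: Interpolate endpoints linearly; if unreached, use highest concentration. GI50 = concentration required for 50% inhibition of growth.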 Calls of active or inactive are those of the source. Cut-off read from the data, not from the text of the source: active = GI50 up to about 1.1 µM and inactive = higher.

Test systems include NCI-H23; PC-3; KM12; RPMI-8226; HOP-92; COLO 205; MDA-MB-231; NCI-H522; HT-29; SK-MEL-2; IGROV-1; SF-295; HOP-62; HCC 2998; Hs-578T; SK-MEL-5; RXF 393; MOLT-4; EKVX; A498.
Holding throughout (experiment): NCI tumour cell line growth inhibition, 48 h

As to `CCOC(=O)C(NC(C)=O)(Nc1ccc(S(N)(=O)=O)cc1)C(F)(F)F` (stereo not given), the GI50 in the assay with NCI-H23 is > 100 µM (inactive); in the assay with PC-3 it was > 100 µM (inactive); with KM12 it was 3.58 µM (inactive); with RPMI-8226, > 100 µM (inactive); in the assay with HOP-92, > 100 µM (inactive); with COLO 205 it was > 100 µM (inactive). Besides, the GI50 with MDA-MB-231, in the assay on NCI-H522, in the assay on HT-29, in the assay on SK-MEL-2, with IGROV-1 and in the assay with SF-295 was > 100 µM (inactive) each time. Moreover, the GI50 in the assay with HOP-62, in the assay with HCC 2998, with Hs-578T, with SK-MEL-5, in the assay on RXF 393 and with MOLT-4 was > 100 µM (inactive) in each case. In addition, the GI50 in the assay with EKVX and in the assay on A498 was > 100 µM (inactive) in each case.
Consider `CCOC(=O)C1=[N+]([O-])OC2=C(O)CCCC21` (stereo not given), for which the GI50 in the assay on NCI-H23, in the assay on PC-3, with KM12, in the assay with RPMI-8226, with HOP-92 and with COLO 205 was > 100 µM (inactive) throughout. The GI50 with MDA-MB-231, in the assay on NCI-H522, in the assay with HT-29, in the assay on SK-MEL-2, in the assay with IGROV-1 and with SF-295 was > 100 µM (inactive) throughout. The GI50 in the assay with HOP-62, in the assay on HCC 2998, in the assay on Hs-578T, in the assay with SK-MEL-5, in the assay with RXF 393 and in the assay with MOLT-4 was > 100 µM (inactive) each time. Also, the GI50 in the assay with EKVX and with A498 was > 100 µM (inactive) throughout.
With `CC1CNC(c2cccc(-c3nc(-c4cccc(C5=NC(C)CN5)c4)nc(N(C)C)n3)c2)=N1` (stereo not given), the GI50 was 2.14 µM (inactive) with NCI-H23; 0.671 µM (active) in the assay on PC-3; 1.67 µM (inactive) in the assay with KM12; 2.75 µM (inactive) with RPMI-8226; 3.87 µM (inactive) in the assay on HOP-92; 1.2 µM (inactive) in the assay on COLO 205. The GI50 was 1.32 µM (inactive) with MDA-MB-231; 0.757 µM (active) in the assay on NCI-H522; 0.895 µM (active) with HT-29; 2.02 µM (inactive) with SK-MEL-2; 3.28 µM (inactive) with IGROV-1; 3.61 µM (inactive) in the assay with SF-295. The GI50 in the assay on HOP-62 is 1.08 µM (active); in the assay with HCC 2998, 1.13 µM (inactive); in the assay on Hs-578T, 2.74 µM (inactive); with SK-MEL-5 it was 2.59 µM (inactive); with RXF 393 it was 3.21 µM (inactive); in the assay on MOLT-4 it was 0.373 µM (active). Besides, the GI50 in the assay with EKVX is 2.23 µM (inactive); in the assay on A498 it was 2.05 µM (inactive).
As for `Oc1nc(-c2ccc3ccccc3c2)nc2ccccc12`, the GI50 in the assay with NCI-H23 was 58.5 µM (inactive); in the assay with PC-3 it was > 100 µM (inactive); in the assay on KM12, > 100 µM (inactive); in the assay with RPMI-8226 it was > 100 µM (inactive); in the assay with HOP-92, 17.4 µM (inactive); in the assay with COLO 205, > 100 µM (inactive). The GI50 was 29 µM (inactive) with MDA-MB-231; 73.8 µM (inactive) with NCI-H522; 57.7 µM (inactive) with HT-29; 91.8 µM (inactive) in the assay with SK-MEL-2; 19.8 µM (inactive) in the assay on IGROV-1; 23.4 µM (inactive) in the assay with SF-295. In addition, the GI50 is 14.4 µM (inactive) in the assay on HOP-62; 62.5 µM (inactive) in the assay with HCC 2998; 24.3 µM (inactive) with Hs-578T; > 100 µM (inactive) with SK-MEL-5; 25.4 µM (inactive) with RXF 393; > 100 µM (inactive) in the assay on MOLT-4. For the same compound, the GI50 in the assay on EKVX was 43.5 µM (inactive); in the assay with A498 it was 32.9 µM (inactive).
Consider `O=S(=O)(Oc1ccc2ccccc2c1-c1c(OS(=O)(=O)C(F)(F)F)ccc2ccccc12)C(F)(F)F`, for which the GI50 with NCI-H23 was 75.2 µM (inactive); in the assay on PC-3, 12.7 µM (inactive); in the assay on KM12, > 100 µM (inactive); in the assay on RPMI-8226 it was 27.5 µM (inactive); in the assay with HOP-92, 12.5 µM (inactive); in the assay with COLO 205, > 100 µM (inactive). The GI50 with MDA-MB-231 was 42.7 µM (inactive); in the assay on NCI-H522 it was 37.7 µM (inactive); with HT-29 it was 41.9 µM (inactive); in the assay on SK-MEL-2, > 100 µM (inactive); with IGROV-1, > 100 µM (inactive); with SF-295, > 100 µM (inactive). Moreover, the GI50 in the assay on HOP-62 was > 100 µM (inactive); with HCC 2998, 31 µM (inactive); in the assay with Hs-578T, > 100 µM (inactive); in the assay with SK-MEL-5, 7.01 µM (inactive); in the assay on RXF 393, 43.4 µM (inactive); with MOLT-4, 12.8 µM (inactive). In addition, the values for the GI50 with EKVX and with A498 were 66.4 µM (inactive) and 26.4 µM (inactive), respectively.
For `O=C(CCOS(=O)(=O)CF)N1CCN(C(=O)CCOS(=O)(=O)CF)CC1`, the GI50 is 29.6 µM (inactive) in the assay with NCI-H23; > 100 µM (inactive) in the assay with PC-3; > 100 µM (inactive) with KM12; > 46.5 µM (inactive) in the assay on RPMI-8226; 35.6 µM (inactive) in the assay with HOP-92; > 80.7 µM (inactive) in the assay on COLO 205. The GI50 in the assay on MDA-MB-231 was > 100 µM (inactive); in the assay on NCI-H522, 31.6 µM (inactive); in the assay on HT-29 it was > 100 µM (inactive); in the assay on SK-MEL-2 it was > 100 µM (inactive); in the assay on IGROV-1, > 69.5 µM (inactive); in the assay with SF-295 it was 32.6 µM (inactive). Also, the GI50 with HOP-62 was 43.2 µM (inactive); in the assay on HCC 2998, > 100 µM (inactive); with Hs-578T, 22.2 µM (inactive); in the assay on SK-MEL-5 it was 51.6 µM (inactive); with RXF 393 it was 59.3 µM (inactive); in the assay with MOLT-4, 3.03 µM (inactive). Moreover, the GI50 in the assay with EKVX and with A498 was > 100 µM (inactive) in each case.
As to `CCOC(CN(C)C(=O)Nc1ccc(Cl)c(Cl)c1)OCC`, the GI50 with NCI-H23, with PC-3, in the assay on KM12, in the assay on RPMI-8226, with HOP-92 and with COLO 205 was > 10 µM (inactive) each time. The GI50 with MDA-MB-231, in the assay on NCI-H522, in the assay with HT-29, in the assay with SK-MEL-2, in the assay with IGROV-1 and with SF-295 was > 10 µM (inactive) in each case. Further, the GI50 with HOP-62, in the assay with HCC 2998, in the assay with Hs-578T, in the assay with SK-MEL-5, in the assay with RXF 393 and in the assay with MOLT-4 was > 10 µM (inactive) each time. Also, the GI50 with EKVX and with A498 was > 10 µM (inactive) throughout.
Consider `Nc1ncnc2c1nc(Cl)n2[C@@H]1O[C@@H]2COP(=O)(O)O[C@H]2[C@H]1O` [TOCLADESINE], for which the GI50 was 16.5 µM (inactive) in the assay on NCI-H23; 8.3 µM (inactive) in the assay with PC-3; 75.5 µM (inactive) in the assay on KM12; 6.47 µM (inactive) in the assay with RPMI-8226; 12.2 µM (inactive) with HOP-92; 10 µM (inactive) in the assay with COLO 205. Moreover, the GI50 with MDA-MB-231 was 21.5 µM (inactive); in the assay on NCI-H522 it was 27.1 µM (inactive); in the assay with HT-29, 8.39 µM (inactive); with SK-MEL-2, > 99.8 µM (inactive); with IGROV-1 it was 24.5 µM (inactive); in the assay on SF-295 it was 51.2 µM (inactive). For the same compound, the GI50 was 19.5 µM (inactive) with HOP-62; 37.8 µM (inactive) with HCC 2998; 28.7 µM (inactive) in the assay with Hs-578T; 152 µM (inactive) with SK-MEL-5; 7.35 µM (inactive) with RXF 393; 7 µM (inactive) in the assay with MOLT-4. The values for the GI50 in the assay on EKVX and in the assay with A498 were 35.6 µM (inactive) and 67.6 µM (inactive), respectively.
As for `Nc1c2c(nc3cc(F)c(F)cc13)CCC2`, the GI50 was 99.5 µM (inactive) in the assay with NCI-H23; 39.8 µM (inactive) in the assay with PC-3; 50.2 µM (inactive) with KM12; 43.9 µM (inactive) with RPMI-8226; 38.3 µM (inactive) in the assay with HOP-92; 43.5 µM (inactive) in the assay with COLO 205. Moreover, the GI50 in the assay on MDA-MB-231 was 56.1 µM (inactive); in the assay on NCI-H522, 72.8 µM (inactive); in the assay with HT-29, 31.8 µM (inactive); in the assay on SK-MEL-2, > 100 µM (inactive); with IGROV-1 it was 45.7 µM (inactive); in the assay with SF-295 it was 41.2 µM (inactive). Moreover, the GI50 in the assay on HOP-62 is > 100 µM (inactive); in the assay with HCC 2998, 14.5 µM (inactive); with Hs-578T, > 100 µM (inactive); with SK-MEL-5 it was 42.7 µM (inactive); in the assay on RXF 393, 33.5 µM (inactive); in the assay with MOLT-4, 30.5 µM (inactive). Also, the GI50 in the assay with EKVX was 52.1 µM (inactive); in the assay on A498, 24.7 µM (inactive).
On to `CC(C)OC(=O)OCSc1ccccc1/N=C/c1cccc([N+](=O)[O-])c1`, for which the GI50 with NCI-H23, with PC-3, in the assay with KM12, in the assay on RPMI-8226, in the assay on HOP-92 and in the assay on COLO 205 was > 10 µM (inactive) throughout. Also, the GI50 in the assay with MDA-MB-231, in the assay with NCI-H522, with HT-29, with SK-MEL-2, in the assay with IGROV-1 and in the assay with SF-295 was > 10 µM (inactive) each time. Further, the GI50 in the assay with HOP-62, with HCC 2998, in the assay with Hs-578T, with SK-MEL-5, in the assay on RXF 393 and in the assay on MOLT-4 was > 10 µM (inactive) throughout. Also, the GI50 in the assay with EKVX and with A498 was > 10 µM (inactive) throughout.
